Measured values from article PMC11729419, “Thiol-Reactive or Redox-Active: Revising a Repurposing Screen Led to a New Invalidation Pipeline and Identified a True Noncovalent Inhibitor Against Papain-like Protease from SARS-CoV-2” (ACS Pharmacology & Translational Science, 2024).
Structures can show the parent of a compound that is named as a salt. Where two headings read alike, the source gives them in different places.

Target: SARS-CoV-2 PLpro-NAB (Severe acute respiratory syndrome coronavirus 2, UniProt P0DTD1)
Assay: biochemical
Details: for Inhibitory activity on retest in 1 mM L-cysteine: 50% inhibition at 20 μM
[1] = Table S1, 20 µM, L-cysteine buffer, average (SD), read-out: HP PLpro-NAB SARS-CoV-2 inhibition [%] 20 µM triplicates L-CYS BUFFER
[2] = Table S1, L-cysteine buffer, read-out: HP PLpro-NAB SARS-CoV-2 IC50 [µM] duplicates L-CYS BUFFER
[3] = Table S1, 20 µM, DTT buffer, average (SD)
[4] = Table S1, 20 µM, L-cysteine buffer, average (SD)
[5] = Table S1, DTT buffer, read-out: HP PLpro-NAB SARS-CoV-2 IC50 [µM] triplicates DTT BUFFER
[6] = Table S1, 20 µM, DTT buffer, average (SD), read-out: HC PLpro-NAB SARS-CoV-2 inhibition [%] 20 µM triplicates DTT BUFFER
[7] = hit confirmation, 20 μM, 1 mM DTT buffer, average (SD), 20 μM PR619 = 100%, DMSO = 0%
[8] = hit profiling, 20 μM, 1 mM L-cys buffer, average (SD), 20 μM PR619 = 100%
[9] = read-out: HP PLpro-NAB IC50 [μM] duplicates 1 mM L-cys buffer, hit profiling, 1 mM L-cys buffer
[10] = read-out: HP PLpro-NAB IC50 [μM] triplicates 1 mM DTT buffer, hit profiling, 1 mM DTT buffer

| Compound | IC50 [2] | HC PLpro-NAB SARS-CoV-2 inhibition [%] 20 µM triplicates DTT BUFFER [3] | HP PLpro-NAB SARS-CoV-2 inhibition [%] 20 µM triplicates L-CYS BUFFER [4] | IC50 [5] | other results |
| --- | --- | --- | --- | --- | --- |
| O=C1C(=O)c2ccccc2-c2ccccc21 [9,10-Phenanthrenequinone] | > 20 µM | – | – | – | inhibition at 20 µM [1]: -40.8% |
| CC1(C)C(=O)N=C2C1=C(O)C(=O)c1ccccc12 [BVT-948] | > 20 µM | 154.88 (0.27) % | -16.22 (16.3) % | 0.39 µM | – |
| Cc1cc(-c2ccc(/C=C3/SC(=Nc4ccc(Cl)c(C(=O)O)c4)NC3=O)o2)c([N+](=O)[O-])cc1C [PT 1] | > 20 µM | 87.07 (2.59) % | -36.09 (5.10) % | 9.32 µM | – |
| SF1670 | > 20 µM | 183.62 (4.27) % | -32.73 (4.18) % | 0.25 µM | – |
| CN(C)CCNc1nc2cc(O)ccc2c2c1C(=O)c1ccccc1-2.Cl.Cl [TAS-103 (dihydrochloride)] | > 20 µM | 154.91 (1.47) % | 17.75 (9.12) % | 5.94 µM | – |
| O=c1ccc2[n+]([O-])c3ccc(O)cc3oc-2c1 [Resazurin (sodium salt), Resazurin] | > 20 µM | – | – | > 20 µM | – |
| COc1cccc2c(NCc3ccccc3)nc(-n3c(N)nc4ccccc43)nc12 [ML240] | > 20 µM | 93.76 (13.43) % | -11.93 (4.14) % | > 20 µM | – |
| CC[n+]1c(-c2ccccc2)c2cc(N)ccc2c2ccc(N)cc21 [Homidium Bromide] | > 20 µM | – | – | 13.7 µM | inhibition at 20 µM [6]: 149%; inhibition at 20 µM [1]: 18.3% |
| C[C@H]1COC2=C1C(=O)C(=O)c1c2ccc2c1CCCC2(C)C [Cryptotanshinone] | – | – | – | – | inhibition at 20 µM [6]: 40.7%; inhibition at 20 µM [1]: -71.4% |
| Cc1cccc2c3c(ccc12)C1=C(C(=O)C3=O)[C@@H](C)CO1 [Dihydrotanshinone I] | > 20 µM | – | – | 0.92 µM | inhibition at 20 µM [6]: 80.7%; inhibition at 20 µM [1]: -176% |
| Oc1c(Cl)cc(Cl)c(Cl)c1Cc1c(O)c(Cl)cc(Cl)c1Cl [Hexachlorophene] | – | – | – | – | IC50 (HP PLpro-NAB SARS-CoV-2 IC50 [µM] duplicates L-CYS BUFFER, Table S1, L-cysteine buffer): > 20 µM; IC50 (HP PLpro-NAB SARS-CoV-2 IC50 [µM] triplicates DTT BUFFER, Table S1, DTT buffer): > 20 µM; inhibition at 20 µM (read-out: HC PLpro-NAB SARS-CoV-2 inhibition [%] 20 µM triplicates DTT BUFFER): 109%; inhibition at 20 µM (read-out: HP PLpro-NAB SARS-CoV-2 inhibition [%] 20 µM triplicates L-CYS BUFFER): -18.3% |
| CC[N+](C)(CC)CCC[n+]1c(-c2ccccc2)c2cc(N)ccc2c2ccc(N)cc21.[I-].[I-] [Propidium-Iodide] | > 20 µM | 135.55 (3.03) % | 14.90 (7.41) % | 0.24 µM | – |
| Cc1cc(-c2ccc(/N=N/c3ccc4c(S(=O)(=O)O)cc(S(=O)(=O)O)c(N)c4c3O)c(C)c2)ccc1/N=N/c1ccc2c(S(=O)(=O)O)cc(S(=O)(=O)O)c(N)c2c1O [Evans Blue] | > 20 µM | – | – | 8.68 µM | inhibition at 20 µM [6]: 126%; inhibition at 20 µM [1]: -67.8% |
| Ro-08-2750 | > 20 µM | 119.29 (1.83) % | -33.99 (8.82) % | 0.4 µM | – |
| Cn1cccc1/C=C1\C(=O)NC(=O)c2ccccc21 [BYK-204165] | > 20 µM | 137.58 (2.88) % | 7.10 (11.9) % | 6.17 µM | – |
| COc1cc([C@@H]2c3cc4c(cc3[C@@H](O[C@@H]3O[C@@H]5CO[C@@H](C)O[C@H]5[C@H](O)[C@H]3O)[C@H]3COC(=O)[C@H]23)OCO4)cc(OC)c1O [Etoposide] | > 20 µM | – | – | > 20 µM | – |

| Compound | IC50 [2] | HC PLpro-NAB SARS-CoV-2 inhibition [%] 20 µM triplicates DTT BUFFER [3] | HP PLpro-NAB SARS-CoV-2 inhibition [%] 20 µM triplicates L-CYS BUFFER [4] | IC50 [5] | other results |
| --- | --- | --- | --- | --- | --- |
| O=C(O)c1cc(O)c2c(c1)[C@H]([C@H]1c3cc(C(=O)O)cc(O)c3C(=O)c3c(O[C@@H]4O[C@H](CO)[C@@H](O)[C@H](O)[C@H]4O)cccc31)c1cccc(O[C@@H]3O[C@H](CO)[C@@H](O)[C@H](O)[C@H]3O)c1C2=O [sennoside A] | – | – | – | – | inhibition at 20 µM (hit confirmation, 20 μM, 1 mM DTT buffer, average (SD), 20 μM PR619 = 100%, DMSO = 0%, read-out: HC PLpro-NAB inhibition [%] 20 μM triplicates 1 mM DTT buffer): 160%; inhibition at 20 µM (hit profiling, 20 μM, 1 mM L-cys buffer, average (SD), 20 μM PR619 = 100%, read-out: HP PLpro-NAB inhibition [%] 20 μM triplicates 1 mM L-cys buffer): 149% |
| COCCn1c2c([n+](Cc3cnccn3)c1C)C(=O)c1ccccc1C2=O [YM-155] | > 20 µM | – | – | 17.9 µM | inhibition at 20 µM [6]: 139%; inhibition at 20 µM [1]: -5.61% |
| O=c1c(O)cccc2cc(O)c(O)c(O)c12 [purpurogallin] | – | – | – | – | IC50 (HP PLpro-NAB IC50 [μM] duplicates 1 mM L-cys buffer, hit profiling, 1 mM L-cys buffer): 1.03 µM; IC50 (HP PLpro-NAB IC50 [μM] triplicates 1 mM DTT buffer, hit profiling, 1 mM DTT buffer): > 20 µM |
| NC(Cc1cc(O)c(O)cc1O)C(=O)O (racemic) [6-Hydroxy-DL-DOPA] | > 20 µM | 81.47 (1.21) % | 4.81 (4.61) % | > 20 µM | – |
| Nc1ccc(O)c2ncccc12 [PD119507] | > 20 µM | 186.40 (4.35) % | -16.42 (5.8) % | 0.065 µM | – |
| CC1(C)CCC2=C(O1)C(=O)c1ccccc1C2=O [Alpha Lapachone] | > 20 µM | 146.26 (3.11) % | -6.97 (8.44) % | 4.43 µM | – |
| Chicago-Sky-Blue-6b | > 20 µM | 51.02 (1.78) % | 3.64 (5.37) % | > 20 µM | – |
| Ryuvidine | > 20 µM | 159.90 (1.27) % | -33.69 (4.70) % | 0.26 µM | – |
| Cc1nc2c(=O)n(C)c(=O)nc-2n(C)n1 [3-Methyl Toxoflavin] | > 20 µM | 181.38 (6.76) % | -26.71 (3.86) % | 0.074 µM | – |
| C[n+]1c2cc(N)ccc2cc2ccc(N)cc21.[Cl-] [Acriflavinium Hydrochloride] | > 20 µM | 27.57 (6.10) % | -99.55 (4.20) % | 12.4 µM | – |
| N#CSc1cc(SC#N)c(N)nc1N [PR-619] | – | – | – | – | Inhibition in L-cysteine buffer versus DTT buffer (dose-response) (1 mM L-cysteine vs 1 mM DTT): did not show variations in inhibition potency or thermal stability; Inhibitory activity on retest in 1 mM L-cysteine: retained their inhibitory activity; HC PLpro-NAB inhibition [%] 20 μM triplicates 1 mM DTT buffer [7]: 101.31 (1.54) %; HP PLpro-NAB inhibition [%] 20 μM triplicates 1 mM L-cys buffer [8]: 106.60 (1.05) %; IC50 [9]: 3.7 µM; IC50 [10]: 1.39 µM |
| CC(C)Nc1cccnc1N1CCN(C(=O)c2cc3cc(NS(C)(=O)=O)ccc3[nH]2)CC1 [Delavirdine (mesylate), Delavirdine] | – | – | – | – | IC50 (HP PLpro-NAB SARS-CoV-2 IC50 [µM] duplicates L-CYS BUFFER): > 20 µM; IC50 (HP PLpro-NAB SARS-CoV-2 IC50 [µM] triplicates DTT BUFFER): > 20 µM |
| O=C(Nc1ccccc1-c1cn2c(CN3CCNCC3)csc2n1)c1cnc2ccccc2n1 [SRT 1720] | – | – | – | – | Inhibitory activity on retest in 1 mM L-cysteine: retained their inhibitory activity; HC PLpro-NAB inhibition [%] 20 μM triplicates 1 mM DTT buffer [7]: 109.60 (16.57) %; HP PLpro-NAB inhibition [%] 20 μM triplicates 1 mM L-cys buffer [8]: 169.11 (0.11) %; IC50 [9]: 0.82 µM; IC50 [10]: > 20 µM |
| O=C1C=CC(=O)c2c(O)cccc21 [Juglone] | > 20 µM | – | – | > 20 µM | inhibition at 20 µM [6]: 83.7%; inhibition at 20 µM [1]: -14.8% |
| CC1(C)CCC2=C(O1)c1ccccc1C(=O)C2=O [Beta-Lapachone] | > 20 µM | – | – | 4.71 µM | inhibition at 20 µM [6]: 175%; inhibition at 20 µM [1]: -37.4% |
| Bacitracin [Bacitracin (Zinc)] | > 20 µM | 67.28 (8.42) % | 6.99 (8.69) % | 10.2 µM | – |
